Experimental data taken from the NIST ThermoML archive (doi:10.1016/j.jct.2008.06.011).
“And” between values parts separate entries of the source, which are not always exact repeats. Equal entries are not always repeated. ± gives the expanded uncertainty stated by the source.

Settings: Crystal, Calculated from knudsen effusion weight loss

In the case of NNC(=O)c1cccs1 [2-thiophenecarboxylic acid hydrazide], the “vapor or sublimation pressure” value (339.13 K) is reported as 0.000108 ± 5e-06 kPa and 0.000109 ± 5e-06 kPa, the “vapor or sublimation pressure” value (341.18 K) is reported as 0.000134 ± 7e-06 kPa and 0.000135 ± 7e-06 kPa and the “vapor or sublimation pressure” value (343.2 K) is reported as 0.000171 ± 9e-06 kPa and 0.000169 ± 8e-06 kPa and 0.000164 ± 8e-06 kPa. For the same compound, the “vapor or sublimation pressure” value (345.13 K) was 0.000218 ± 1.1e-05 kPa and 0.000213 ± 1.1e-05 kPa and 0.000219 ± 1.1e-05 kPa, the “vapor or sublimation pressure” value (347.18 K) was 0.000273 ± 1.4e-05 kPa and 0.000274 ± 1.4e-05 kPa and 0.000262 ± 1.3e-05 kPa and the “vapor or sublimation pressure” value (349.19 K) was 0.00033 ± 1.7e-05 kPa and 0.00034 ± 1.7e-05 kPa and 0.000323 ± 1.6e-05 kPa. The “vapor or sublimation pressure” value (351.13 K) was 0.000414 ± 2.1e-05 kPa and 0.000423 ± 2.1e-05 kPa and 0.000404 ± 2e-05 kPa, the “vapor or sublimation pressure” value (353.18 K) was 0.000519 ± 2.6e-05 kPa and 0.00052 ± 2.6e-05 kPa and 0.000497 ± 2.5e-05 kPa and the “vapor or sublimation pressure” value (355.19 K) was 0.000637 ± 3.2e-05 kPa and 0.000628 ± 3.1e-05 kPa and 0.000622 ± 3.1e-05 kPa. For the same compound, the “vapor or sublimation pressure” value (357.12 K) was 0.000786 ± 3.9e-05 kPa and 0.000787 ± 3.9e-05 kPa and 0.000763 ± 3.8e-05 kPa, the “vapor or sublimation pressure” value (359.15 K) was 0.000977 ± 4.9e-05 kPa and 0.000971 ± 4.9e-05 kPa and 0.000942 ± 4.7e-05 kPa and the “vapor or sublimation pressure” value (361.18 K) was 0.001194 ± 0.00012 kPa and 0.001173 ± 0.00012 kPa and 0.001154 ± 0.00012 kPa.
With NNC(=O)c1ccco1 [2-furoic acid hydrazide] the “vapor or sublimation pressure” value (309.15 K) was 0.0001487 ± 7.5e-06 kPa and 0.0001459 ± 7.3e-06 kPa and 0.0001436 ± 7.2e-06 kPa, the “vapor or sublimation pressure” value (311.15 K) was 0.0001928 ± 9.7e-06 kPa and 0.0001919 ± 9.6e-06 kPa and 0.0001872 ± 9.4e-06 kPa and the “vapor or sublimation pressure” value (313.14 K) was 0.0002436 ± 1.2e-05 kPa and 0.0002335 ± 1.2e-05 kPa and 0.0002348 ± 1.2e-05 kPa. The “vapor or sublimation pressure” value (315.14 K) was 0.0003144 ± 1.6e-05 kPa and 0.0003082 ± 1.6e-05 kPa and 0.0003114 ± 1.6e-05 kPa, the “vapor or sublimation pressure” value (317.13 K) was 0.0003943 ± 2e-05 kPa and 0.0003803 ± 1.9e-05 kPa and 0.0003744 ± 1.9e-05 kPa and the “vapor or sublimation pressure” value (319.15 K) was 0.0005068 ± 2.5e-05 kPa and 0.0004916 ± 2.5e-05 kPa and 0.0004795 ± 2.4e-05 kPa. For the same compound, the “vapor or sublimation pressure” value (321.14 K) was 0.0006091 ± 3e-05 kPa and 0.0006111 ± 3.1e-05 kPa and 0.0005851 ± 2.9e-05 kPa, the “vapor or sublimation pressure” value (323.16 K) was 0.0007862 ± 3.9e-05 kPa and 0.0007814 ± 3.9e-05 kPa and 0.0007812 ± 3.9e-05 kPa and the “vapor or sublimation pressure” value (325.15 K) was 0.0009687 ± 4.8e-05 kPa and 0.0009579 ± 4.8e-05 kPa and 0.0009504 ± 4.8e-05 kPa.
